Experimental data taken from article PMC7943729, “Cell-Free DNA Promotes Thrombin Autolysis and Generation of Thrombin-Derived C-Terminal Fragments” (Frontiers in Immunology, 2021).

How the values were obtained:
genomic DNA = assay: DNA gel shift assay (agarose gel mobility shift); type: binding, human; conditions: 200 ng gDNA (20 µg/ml), 10-200 ng protein or peptide, 10 mM Tris pH 7.4, 1 h 37 °C, 0.8% agarose gel, SYBR Safe; n = 3
Method: The DNA used for agarose gel and western blot analysis was extracted from cultured human keratinocytes (HaCaT) cells using E.Z.N.A. DNA/RNA Isolation kit (Omega Bio-Tek USA) or E. coli DH5α plasmid DNA (pUC19) using Qiagen plasmid purification kits (Qiagen USA) according to the manufacturer’s protocol.
Following this, the samples were analyzed by gel electrophoresis on a 0.8% agarose (w/v) gel in 1X Tris acetate-EDTA (TAE) buffer with SYBR Safe and visualized with the ChemiDoc Imaging System (Bio-Rad, USA).

[1] = molecular target: T1, human neutrophil elastase (Homo sapiens, UniProt P08246); assay: Protease protection assay; type: in vitro ADME; conditions: NE 1:30, 37 °C, western blot
T1 sequence (P08246 30-267): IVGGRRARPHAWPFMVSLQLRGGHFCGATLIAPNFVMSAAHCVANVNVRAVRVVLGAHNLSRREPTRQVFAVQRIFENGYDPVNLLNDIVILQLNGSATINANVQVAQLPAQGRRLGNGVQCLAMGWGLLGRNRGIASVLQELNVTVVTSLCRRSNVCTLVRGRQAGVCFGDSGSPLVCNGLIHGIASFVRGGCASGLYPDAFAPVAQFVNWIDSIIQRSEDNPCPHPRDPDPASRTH
Method: Thrombin or GKY25 (0.4 µg) was incubated with DNA (w/w ratio = 1:1) in 10 mM Tris, pH 7.4 for 4 h, followed by addition of neutrophil elastase at enzyme: substrate ratio of 1:30 and incubated for various time points (1, 2, and 3 h). Post incubation, samples were boiled for 3 min to inhibit the reaction and further analyzed by Tricine SDS-PAGE as described above.

human thrombin [2] = molecular target: T2, human thrombin (Homo sapiens, UniProt P00734); conditions: thrombin autolysis without DNA; cited from earlier work
T2 construct: purchased Innovative Research USA
Source text: Previous studies have shown that the rate of autolysis increases with concentration of thrombin, pH, temperature and concentration of monovalent cations ([31], [32]).

human thrombin [3] = molecular target: T2, human thrombin; assay: Thrombin autolysis determination by western blot; type: biochemical
Method: 10 µl of citrate plasma was added to increasing concentration of DNA (6.25, 12.5, 25, and 50 µg/ml) resuspended in 10 mM Tris, pH 7.4 (total volume of 20 µl). Following an hour pre-incubation at 37 °C, 2.5 mM CaCl2 was added to samples and further incubated for 1 hour at 37 °C. After incubation, samples were boiled for 15 min with sample buffer and were analyzed by SDS-PAGE using Novex 10–20% Tris Tricine precast gels. Post electrophoresis, the gel was transferred to a PVDF membrane and blocked with 5% milk for an hour before western blotting. For detection of C-terminal thrombin fragments, overnight incubation of the blots was performed with polyclonal antibodies recognizing the thrombin C-terminal peptide VFR17 ([…]) in 1:5,000 dilution at 4 °C. […]
DNA dependent thrombin autolysis was analyzed by incubating 0.4 µg of human thrombin (Innovative Research USA) in the presence or absence of equal weight ratio (1:1) of DNA in a total volume of 10 µl for different time points (1, 2, 4, and 6 h). […] Thrombin autolysis inhibition was analyzed using 0.4 µg of heat inactivated thrombin (preboiled for 10 mins at 95 °C) incubated with equal weight ratio (1:1) of DNA for extended time of 6 h. […] In all cases, after the incubation at 37 °C, samples were boiled for 10 min in sample buffer and analyzed by western blotting as mentioned above.

## thrombin
Genomic DNA
  amount giving complete retardation of DNA: ≥ 160 ng
  amount giving reduced DNA migration: 40 ng
[1]; 0.4 µg thrombin with gDNA 1:1 w/w, increasing incubation time 60-180 min
  thrombin fragments after neutrophil elastase in the presence of DNA: a higher signal intensity of the 3 kDa TCP
[1]; 0.4 µg thrombin, control lanes without DNA, 60-180 min
  cleavage of thrombin by neutrophil elastase without DNA: cleaved thrombin to release multiple TCPs
Human thrombin [2]
  time for complete autolytic conversion to γ-thrombin: ~144 h

## O=S(=O)(F)Cc1ccccc1 [PMSF]
Human thrombin [3]; 0.4 µg thrombin, DNA 1:1 w/w, 4 h 37 °C, PMSF 1 mM, protease inhibitor cocktail 1X
  inhibition of DNA-induced TCP formation: abrogated the formation of TCPs

## heparin
Human thrombin [3]; 0.4 µg human thrombin, 37 °C, western blot with anti-VFR17, DNA 1:1 for 1-6 h, NETs 4 h, heparin 1:0.5 and 1:1 for 1 h
  induction of thrombin fragmentation / TCP formation: did not induce thrombin fragmentation or TCP formation
